Data: ChEMBL document CHEMBL1201862, “PubChem BioAssay data set” (2004)
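Values below derive from 48-hour exposures of cells grown in 96-well plates, with endpoints linearly interpolated between the two concentrations bracketing the appropriate inhibition level. Here, GI50 denotes the concentration required for 50% inhibition of growth.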 Active and inactive are the calls of the source. Cut-off read from the data, not from the text of the source: active = GI50 up to about 1.1 µM and inactive = higher.

Tests used:
Assay in all cases: DTP human tumour cell line panel, 48 h
A498 = tested on: A498
SK-OV-3 = tested on: SK-OV-3
U-251 = tested on: U-251
NCI-H460 = tested on: NCI-H460
OVCAR-3 = tested on: OVCAR-3
BT-549 = tested on: BT-549
HT-29 = tested on: HT-29
SW-620 = tested on: SW-620
HCC 2998 = tested on: HCC 2998
SN12C = tested on: SN12C
EKVX = tested on: EKVX
SNB-75 = tested on: SNB-75
MDA-N = tested on: MDA-N
MCF7 = tested on: MCF7
CCRF-CEM = tested on: CCRF-CEM
HCT-15 = tested on: HCT-15
SF-295 = tested on: SF-295
NCI-H23 = tested on: NCI-H23
Hs-578T = tested on: Hs-578T
NCI-H522 = tested on: NCI-H522

| SMILES | GI50 (A498) | GI50 (SK-OV-3) | GI50 (U-251) | GI50 (NCI-H460) | GI50 (OVCAR-3) | GI50 (BT-549) | GI50 (HT-29) | GI50 (SW-620) | GI50 (HCC 2998) | GI50 (SN12C) | GI50 (EKVX) | GI50 (SNB-75) | GI50 (MDA-N) | GI50 (MCF7) | GI50 (CCRF-CEM) | GI50 (HCT-15) [µM] | GI50 (SF-295) | GI50 (NCI-H23) | GI50 (Hs-578T) | GI50 (NCI-H522) |
| --- | --- | --- | --- | --- | --- | --- | --- | --- | --- | --- | --- | --- | --- | --- | --- | --- | --- | --- | --- | --- |
| CCC(C)[C@H](NC(=O)N[C@H](C)c1ccccc1)C(=O)OC (some centres not stated) | > 100 µM (inactive) | > 100 µM (inactive) | > 100 µM (inactive) | > 100 µM (inactive) | > 100 µM (inactive) | > 100 µM (inactive) | > 100 µM (inactive) | > 100 µM (inactive) | > 100 µM (inactive) | > 100 µM (inactive) | > 100 µM (inactive) | > 100 µM (inactive) | > 100 µM (inactive) | > 100 µM (inactive) | > 100 µM (inactive) | > 100 | > 100 µM (inactive) | > 100 µM (inactive) |  |  |
| COc1ccc2c(c1)-c1[nH]c3ccc(OC)cc3c1CC2 |  | 18.6 µM (inactive) | 17.3 µM (inactive) | 16.3 µM (inactive) | 17.6 µM (inactive) | 17.7 µM (inactive) | 12.3 µM (inactive) | 22.4 µM (inactive) | 15.6 µM (inactive) | 14.8 µM (inactive) | 7.28 µM (inactive) | 13.5 µM (inactive) | 14.7 µM (inactive) | 24.9 µM (inactive) | 14.3 µM (inactive) | 10.6 | 13.1 µM (inactive) | 12.9 µM (inactive) | 13.4 µM (inactive) | 4.55 µM (inactive) |
| COc1cc2c(cc1OC)C(=O)C1(C2)[C@H](c2ccccc2)C2C(=O)c3cc(OC)c(OC)cc3C2[C@H]1c1ccccc1 (some centres not stated) | > 100 µM (inactive) | > 100 µM (inactive) | > 100 µM (inactive) | 49.1 µM (inactive) | > 100 µM (inactive) | > 100 µM (inactive) | > 100 µM (inactive) | > 100 µM (inactive) | > 100 µM (inactive) | > 100 µM (inactive) | > 100 µM (inactive) | 24.8 µM (inactive) | > 100 µM (inactive) |  | > 100 µM (inactive) | > 100 | > 100 µM (inactive) | > 100 µM (inactive) | > 100 µM (inactive) | > 100 µM (inactive) |
| O=c1c(C(c2ccc(/C=C/c3ccccc3)cc2)c2c(O)oc3ccccc3c2=O)c(O)oc2ccccc12 | 30.5 µM (inactive) |  | 18.5 µM (inactive) | 24.5 µM (inactive) | 36 µM (inactive) | 26.6 µM (inactive) | 20.3 µM (inactive) | 37.9 µM (inactive) | 23.3 µM (inactive) | 21.8 µM (inactive) | 28.6 µM (inactive) | 19.7 µM (inactive) | 21.8 µM (inactive) |  | 41.4 µM (inactive) | 44 |  | 28.1 µM (inactive) | 26.8 µM (inactive) | 18.6 µM (inactive) |
| NN/C(=N\c1ccc(Cl)cc1)NS(=O)(=O)c1ccc(S(=O)(=O)c2ccccc2)s1 | 49.1 µM (inactive) | 71.9 µM (inactive) | 29 µM (inactive) | 17.2 µM (inactive) | 20.6 µM (inactive) | 26.4 µM (inactive) | 18.6 µM (inactive) | 38.6 µM (inactive) |  | 22.6 µM (inactive) | 11 µM (inactive) |  | 13.7 µM (inactive) | 22.2 µM (inactive) |  | 22 | 8.79 µM (inactive) | 20.4 µM (inactive) |  |  |
| CCC(CN(C)C)C(=O)c1ccco1 (configuration not stated) | > 100 µM (inactive) | > 100 µM (inactive) | > 100 µM (inactive) | > 100 µM (inactive) | > 100 µM (inactive) | > 100 µM (inactive) | > 100 µM (inactive) | > 100 µM (inactive) | > 100 µM (inactive) | > 100 µM (inactive) | > 100 µM (inactive) | > 100 µM (inactive) |  | 47.9 µM (inactive) |  | > 100 | > 100 µM (inactive) | > 100 µM (inactive) | 98.6 µM (inactive) | 14.5 µM (inactive) |
| CS(=O)(=O)c1nc(-c2cc3c(c(S(C)(=O)=O)n2)CCC3)cc2c1CCC2 | > 100 µM (inactive) | > 100 µM (inactive) | 47.3 µM (inactive) | > 100 µM (inactive) | > 100 µM (inactive) | > 100 µM (inactive) | > 100 µM (inactive) | > 100 µM (inactive) | > 100 µM (inactive) | > 100 µM (inactive) | > 100 µM (inactive) | 22.4 µM (inactive) | > 100 µM (inactive) |  | > 100 µM (inactive) | > 100 | > 100 µM (inactive) | > 100 µM (inactive) |  | > 100 µM (inactive) |
| Oc1ccc(-c2nc(-c3cccnc3)c(-c3ccc(F)cc3)[nH]2)cc1 |  | 23.4 µM (inactive) | 17.3 µM (inactive) | 23.3 µM (inactive) | 16.7 µM (inactive) | 16.6 µM (inactive) | 18.1 µM (inactive) | 17.8 µM (inactive) | 19.8 µM (inactive) | 23.9 µM (inactive) | 19.3 µM (inactive) | 18.2 µM (inactive) | 19 µM (inactive) | 16 µM (inactive) | 10.7 µM (inactive) | 22.7 | 16.7 µM (inactive) | 12.7 µM (inactive) | 20.9 µM (inactive) |  |
